Reference: patent US11274332B2, “Methods of administering 3,4-diaminopyridine” (SERB SA, priority 2011, dated 2022)
Values joined by “and” are separate entries in the source; they are usually repeats but may differ in a detail not shown here. Identical values can stand only once.

Test: Food-effect crossover study, adverse events after single 20 mg amifampridine phosphate in healthy subjects (Examples 10, 11)
Type: in vivo
Method: This was a randomized, open-label, 2-treatment, 2-period crossover study with 44 completed subjects to assess the safety, tolerability, and the effect of food on the relative bioavailability of a single dose of amifampridine phosphate.
Safety was evaluated for all subjects who take at least one dose of 3,4-DAP. Safety was evaluated by recording the incidence of adverse events (AEs), physical examination, vital signs, concomitant medications, clinical laboratory assessments, and 12-lead electrocardiogram (ECG).
Analysis for the following safety parameters was carried out on the Safety Population: AEs which included all AEs, AEs by severity, drug-related AEs, deaths, SAEs, AEs leading to study discontinuation, and most frequent AEs, standard clinical laboratory tests, vital signs, ECG measurements, routine physical examinations, and prior and concomitant medications. The cut-off for frequency of AEs reported was determined based on the data. No formal statistical testing was performed for the safety analyses; only descriptive statistics were provided. Appropriate descriptive statistics for the safety data were determined using SAS Version 9.2.
AEs were coded according to the Medical Dictionary for Regulatory Activities (MedDRA; Version 13.0). […] The occurrence of AEs was assessed continuously from the time the subject signed the VID and consent. The reporting period for non-serious AEs was from the first dose to the final study visit. The investigator determined the severity of each event and the relationship of an AE to the IP and recorded it on the source documents and AE CRF. The nature, time of onset, duration, severity, and relationship to study drug was documented, including documentation of investigator assessment and review. All events were assessed to determine if the AE was serious.
The Investigator determined the severity of each event and the event was recorded on the source documents and AE CRF. A coding of “mild” meant there was no limitation of usual activities, “moderate” meant there was some limitation of usual activities, “severe” meant there was an inability to carry out usual activities.
The reporting period for AEs that met the criteria of an SAE began from the time of signing the VID and consent form through follow-up or early termination. […] Clinical Laboratory Assessments

For `Nc1ccncc1N.O=P(O)(O)O` [amifampridine phosphate, 3,4-diaminopyridine phosphate], the “Diarrhoea, drug-related AE: % of subjects” value (Fed N=46) was “(0%) [0]”, the “Diarrhoea, drug-related AE: events” value (Fed N=46) was “(0%) [0]” and the “Diarrhoea, drug-related AE: subjects” value (Fed N=46) was 0. For the same compound, the “Discontinued due to adverse events: % of subjects” value (Fed N=46) was 2%, the “Discontinued due to adverse events: events” value (Fed N=46) was 1 and the “Discontinued due to adverse events: subjects” value (Fed N=46) was 1. For the same compound, the “Dizziness, drug-related AE: % of subjects” value (Fed N=46) was 4%, the “Dizziness, drug-related AE: events” value (Fed N=46) was 2 and the “Dizziness, drug-related AE: subjects” value (Fed N=46) was 2. For the same compound, the “Dysgeusia, drug-related AE: % of subjects” value (Fed N=46) was 4%, the “Dysgeusia, drug-related AE: events” value (Fed N=46) was 2 and the “Dysgeusia, drug-related AE: subjects” value (Fed N=46) was 2. The “Fatigue, drug-related AE: % of subjects” value (Fed N=46) was 7%, the “Fatigue, drug-related AE: events” value (Fed N=46) was 3 and the “Fatigue, drug-related AE: subjects” value (Fed N=46) was 3. The “Feeling Hot, drug-related AE: % of subjects” value (Fed N=46) was “(0%) [0]”, the “Feeling Hot, drug-related AE: events” value (Fed N=46) was “(0%) [0]” and the “Feeling Hot, drug-related AE: subjects” value (Fed N=46) was 0. The “Flushing, drug-related AE: % of subjects” value (Fed N=46) was 2%, the “Flushing, drug-related AE: events” value (Fed N=46) was 1 and the “Flushing, drug-related AE: subjects” value (Fed N=46) was 1. For the same compound, the “Gastrointestinal Disorders Total, drug-related AE: % of subjects” value (Fed N=46) was 4%, the “Gastrointestinal Disorders Total, drug-related AE: events” value (Fed N=46) was 2 and the “Gastrointestinal Disorders Total, drug-related AE: subjects” value (Fed N=46) was 2. For the same compound, the “General Disorders and Administration Site Conditions Total, drug-related AE: % of subjects” value (Fed N=46) was 7%, the “General Disorders and Administration Site Conditions Total, drug-related AE: events” value (Fed N=46) was 3 and the “General Disorders and Administration Site Conditions Total, drug-related AE: subjects” value (Fed N=46) was 3. The “Headache, drug-related AE: % of subjects” value (Fed N=46) was 2%, the “Headache, drug-related AE: events” value (Fed N=46) was 1 and the “Headache, drug-related AE: subjects” value (Fed N=46) was 1. For the same compound, the “Hypoaesthesia Facial, drug-related AE: % of subjects” value (Fed N=46) was “(0%) [0]”, the “Hypoaesthesia Facial, drug-related AE: events” value (Fed N=46) was “(0%) [0]” and the “Hypoaesthesia Facial, drug-related AE: subjects” value (Fed N=46) was 0. For the same compound, the “Hypoaesthesia Oral, drug-related AE: % of subjects” value (Fed N=46) was 7%, the “Hypoaesthesia Oral, drug-related AE: events” value (Fed N=46) was 3 and the “Hypoaesthesia Oral, drug-related AE: subjects” value (Fed N=46) was 3. The “Hypoaesthesia, drug-related AE: % of subjects” value (Fed N=46) was “(0%) [0]”, the “Hypoaesthesia, drug-related AE: events” value (Fed N=46) was “(0%) [0]” and the “Hypoaesthesia, drug-related AE: subjects” value (Fed N=46) was 0. The “Nausea, drug-related AE: % of subjects” value (Fed N=46) was 2%, the “Nausea, drug-related AE: events” value (Fed N=46) was 1 and the “Nausea, drug-related AE: subjects” value (Fed N=46) was 1. The “Nervous System Disorders Total, drug-related AE: % of subjects” value (Fed N=46) was 37%, the “Nervous System Disorders Total, drug-related AE: events” value (Fed N=46) was 31 and the “Nervous System Disorders Total, drug-related AE: subjects” value (Fed N=46) was 17. The “Paraesthesia Oral, drug-related AE: % of subjects” value (Fed N=46) was 28%, the “Paraesthesia Oral, drug-related AE: events” value (Fed N=46) was 15 and the “Paraesthesia Oral, drug-related AE: subjects” value (Fed N=46) was 13. The “Paraesthesia, drug-related AE: % of subjects” value (Fed N=46) was 15%, the “Paraesthesia, drug-related AE: events” value (Fed N=46) was 8 and the “Paraesthesia, drug-related AE: subjects” value (Fed N=46) was 7. The “Possibly or probably related AEs, Mild: % of subjects” value (Fed N=46) was 46%, the “Possibly or probably related AEs, Mild: events” value (Fed N=46) was 37 and the “Possibly or probably related AEs, Mild: subjects” value (Fed N=46) was 21. For the same compound, the “Possibly or probably related AEs, Moderate: % of subjects” value (Fed N=46) was “(0%) [0]”, the “Possibly or probably related AEs, Moderate: events” value (Fed N=46) was “(0%) [0]” and the “Possibly or probably related AEs, Moderate: subjects” value (Fed N=46) was 0. For the same compound, the “Possibly or probably related AEs, Severe: % of subjects” value (Fed N=46) was “(0%) [0]”, the “Possibly or probably related AEs, Severe: events” value (Fed N=46) was “(0%) [0]” and the “Possibly or probably related AEs, Severe: subjects” value (Fed N=46) was 0. The “Possibly or probably related AEs, Total: % of subjects” value (Fed N=46) was 46%, the “Possibly or probably related AEs, Total: events” value (Fed N=46) was 37 and the “Possibly or probably related AEs, Total: subjects” value (Fed N=46) was 21. The “Serious adverse events: % of subjects” value (Fed N=46) was “(0%) [0]”, the “Serious adverse events: events” value (Fed N=46) was “(0%) [0]” and the “Serious adverse events: subjects” value (Fed N=46) was 0. The “Skin and Subcutaneous Tissue Disorders Total, drug-related AE: % of subjects” value (Fed N=46) was “(0%) [0]”, the “Skin and Subcutaneous Tissue Disorders Total, drug-related AE: events” value (Fed N=46) was “(0%) [0]” and the “Skin and Subcutaneous Tissue Disorders Total, drug-related AE: subjects” value (Fed N=46) was 0. The “Vascular Disorders Total, drug-related AE: % of subjects” value (Fed N=46) was 2%, the “Vascular Disorders Total, drug-related AE: events” value (Fed N=46) was 1 and the “Vascular Disorders Total, drug-related AE: subjects” value (Fed N=46) was 1. The “All treatment emergent AEs, Total: subjects” value (Fed N=46, phosphate) was 24 and 23, the “Abdominal Pain Upper, drug-related AE: % of subjects” value (Female N=16) was 6% and the “Abdominal Pain Upper, drug-related AE: events” value (Female N=16) was 1. The “Abdominal Pain Upper, drug-related AE: subjects” value (Female N=16) was 1, the “Abdominal Pain, drug-related AE: % of subjects” value (Female N=16) was 13% and the “Abdominal Pain, drug-related AE: events” value (Female N=16) was 2. The “Abdominal Pain, drug-related AE: subjects” value (Female N=16) was 2, the “Abdominal Tenderness, drug-related AE: % of subjects” value (Female N=16) was 6% and the “Abdominal Tenderness, drug-related AE: events” value (Female N=16) was 1. The “Abdominal Tenderness, drug-related AE: subjects” value (Female N=16) was 1, the “Acne, drug-related AE: % of subjects” value (Female N=16) was “(0%) [0]” and the “Acne, drug-related AE: events” value (Female N=16) was “(0%) [0]”. For the same compound, the “Acne, drug-related AE: subjects” value (Female N=16) was 0, the “All treatment emergent AEs, Mild: % of subjects” value (Female N=16) was 75% and the “All treatment emergent AEs, Mild: events” value (Female N=16) was 41. The “All treatment emergent AEs, Mild: subjects” value (Female N=16) was 12, the “All treatment emergent AEs, Moderate: % of subjects” value (Female N=16) was 13% and the “All treatment emergent AEs, Moderate: events” value (Female N=16) was 2. The “All treatment emergent AEs, Moderate: subjects” value (Female N=16) was 2, the “All treatment emergent AEs, Severe: % of subjects” value (Female N=16) was “(0%) [0]” and the “All treatment emergent AEs, Severe: events” value (Female N=16) was “(0%) [0]”. For the same compound, the “All treatment emergent AEs, Severe: subjects” value (Female N=16) was 0, the “All treatment emergent AEs, Total: events” value (Female N=16) was 43 and the “All treatment emergent AEs, Total: subjects” value (Female N=16) was 12. The “Constipation, drug-related AE: % of subjects” value (Female N=16) was 6%, the “Constipation, drug-related AE: events” value (Female N=16) was 1 and the “Constipation, drug-related AE: subjects” value (Female N=16) was 1. For the same compound, the “Diarrhoea, drug-related AE: % of subjects” value (Female N=16) was 6%, the “Diarrhoea, drug-related AE: events” value (Female N=16) was 1 and the “Diarrhoea, drug-related AE: subjects” value (Female N=16) was 1. For the same compound, the “Discontinued due to adverse events: % of subjects” value (Female N=16) was “(0%) [0]”, the “Discontinued due to adverse events: events” value (Female N=16) was “(0%) [0]” and the “Discontinued due to adverse events: subjects” value (Female N=16) was 0. The “Dizziness, drug-related AE: % of subjects” value (Female N=16) was 25%, the “Dizziness, drug-related AE: events” value (Female N=16) was 5 and the “Dizziness, drug-related AE: subjects” value (Female N=16) was 4. The “Dysgeusia, drug-related AE: % of subjects” value (Female N=16) was “(0%) [0]”, the “Dysgeusia, drug-related AE: events” value (Female N=16) was “(0%) [0]” and the “Dysgeusia, drug-related AE: subjects” value (Female N=16) was 0. The “Fatigue, drug-related AE: % of subjects” value (Female N=16) was 13%, the “Fatigue, drug-related AE: events” value (Female N=16) was 2 and the “Fatigue, drug-related AE: subjects” value (Female N=16) was 2. The “Feeling Hot, drug-related AE: % of subjects” value (Female N=16) was “(0%) [0]”, the “Feeling Hot, drug-related AE: events” value (Female N=16) was “(0%) [0]” and the “Feeling Hot, drug-related AE: subjects” value (Female N=16) was 0. For the same compound, the “Flushing, drug-related AE: % of subjects” value (Female N=16) was 6%, the “Flushing, drug-related AE: events” value (Female N=16) was 1 and the “Flushing, drug-related AE: subjects” value (Female N=16) was 1. The “Gastrointestinal Disorders Total, drug-related AE: % of subjects” value (Female N=16) was 31%, the “Gastrointestinal Disorders Total, drug-related AE: events” value (Female N=16) was 8 and the “Gastrointestinal Disorders Total, drug-related AE: subjects” value (Female N=16) was 5. For the same compound, the “General Disorders and Administration Site Conditions Total, drug-related AE: % of subjects” value (Female N=16) was 13%.
